Assay results: patent publication US7919101B2 (priority 2008, dated 2011)
Read-outs that look alike come from different tables or passages of the source. Residues, ends and D or L forms follow the SMILES beside them. No end group written: not given here.

Experiments:
[1] = test system: HIV-1 Env-mediated cell-cell fusion; conditions: cited from earlier work
HIV-1 = conditions: cited from earlier work
gp41 6-HB formation = gp41 6-HB formation (Human immunodeficiency virus type 1 group M subtype B, UniProt P04578); conditions: cited from earlier work
Chain of gp41 6-HB formation (P04578 546-581): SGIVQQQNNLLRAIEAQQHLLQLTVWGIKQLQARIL

[2] = test system: HIV-1-mediated cell-cell fusion (H9/HIV-1IIIB cells and MT-2 cells); assay: HIV-1-mediated cell-cell fusion, dye transfer assay; format: cell-based
Experimental: The inhibitory activities of the compounds on HIV-induced cell-cell fusion were determined using a dye transfer assay (Jiang S et al. Proc SPIE 3926:212-219, 2000). Briefly, H9/HIV-1IIIB cells were pre-labeled with a fluorescent dye, Calcein AM (Molecular Probes, Inc.), and incubated with a testing compound at a graded concentration at 37° C. for 30 min in a 96-well cell culture plate. Then the CD4^+ MT-2 cells were added to the H9/HIV-1IIIB cells at a ratio of 10:1, followed by incubation at 37° C. for 2 hrs. The fused and unfused calcein-labeled HIV-1-infected cells were counted under an inverted fluorescence microscope with an eyepiece micrometer disc.

[3] = cited from earlier work
[4] = in combination T-20:Sifuvirtide (4:1)
[5] = in combination T-20:Sifuvirtide (4:1) vs alone

For `COc1ccc(S(=O)(=O)[O-])cc1N=Nc1c(S(=O)(=O)[O-])cc2cc(Nc3nc(Nc4ccccc4)nc(Nc4cc(C)c(N=Nc5cc(S(=O)(=O)[O-])cc6cc(S(=O)(=O)[O-])cc(O)c56)cc4OC)n3)ccc2c1O.[Na+].[Na+].[Na+].[Na+]` [ADS-J1], the “EC50, HIV-1 mediated cell-cell fusion (in words)” value [1] is listed as “low μM range”, the “EC50, HIV infection / replication (in words)” value (HIV-1) is listed as “low μM range” and the “EC50, gp41 6-HB formation (in words)” value (gp41 6-HB formation) is listed as “low μM range”.

In the case of `CC[C@H](C)[C@H](NC(=O)[C@H](CCC(=O)O)NC(=O)[C@H](CCCNC(=N)N)NC(=O)[C@H](CCC(=O)O)NC(=O)[C@H](Cc1c[nH]c2ccccc12)NC(=O)[C@@H](NC(=O)[C@H](CCC(=O)O)NC(=O)[C@H](Cc1c[nH]c2ccccc12)NC(=O)[C@@H](N)CO)[C@@H](C)O)C(=O)N[C@@H](CCC(=O)O)C(=O)N[C@@H](CC(N)=O)C(=O)N[C@@H](Cc1ccc(O)cc1)C(=O)N[C@H](C(=O)N[C@@H](CCCCN)C(=O)N[C@@H](CCC(N)=O)C(=O)N[C@H](C(=O)N[C@@H](Cc1ccc(O)cc1)C(=O)N[C@@H](CCCCN)C(=O)N[C@H](C(=O)N[C@@H](CC(C)C)C(=O)N[C@@H](CCC(=O)O)C(=O)N[C@@H](CCC(=O)O)C(=O)N[C@@H](CO)C(=O)N[C@@H](CCC(N)=O)C(=O)N[C@@H](CCC(=O)O)C(=O)N[C@@H](CCC(N)=O)C(=O)N[C@@H](CCC(N)=O)C(=O)N[C@@H](CC(=O)O)C(=O)N[C@@H](CCCNC(=N)N)C(=O)N[C@@H](CC(N)=O)C(=O)N[C@@H](CCC(=O)O)C(=O)N[C@@H](CCCCN)C(=O)N[C@@H](CC(=O)O)C(=O)N[C@@H](CC(C)C)C(=O)N[C@@H](CC(C)C)C(=O)N[C@@H](CCC(=O)O)C(=O)O)[C@@H](C)CC)[C@@H](C)CC)[C@@H](C)O` [Sifuvirtide] (H-SWETWEREIENYTKQIYKILEESQEQQDRNEKDLLE-OH; N-terminus and C-terminus assumed), the “EC70 Concentration Mix” value [2, 4] is reported as 0.589 nM, the “EC95 Concentration Mix” value [2, 4] is reported as 0.884 nM and the “Potency increase at EC50” value [2, 5] is reported as 35.424 fold. The “Potency increase at EC70” value [2, 5] was 35.075 fold, the “Potency increase at EC90” value [2, 5] was 34.771 fold and the “Potency increase at EC95” value [2, 5] was 34.564 fold. The EC50 ([2]; in combination T-20:Sifuvirtide (4:1), read-out: EC50 Concentration Mix) was 0.462 nM, the EC90 ([2]; in combination T-20:Sifuvirtide (4:1), read-out: EC90 Concentration Mix) was 0.75 nM and the “EC70 Concentration Alone” value ([2]; peptide tested alone) was 20.659 nM. The “EC95 Concentration Alone” value ([2]; peptide tested alone) was 30.555 nM, the EC50 ([2]; peptide tested alone, read-out: EC50 Concentration Alone) was 16.4 nM and the EC90 ([2]; peptide tested alone, read-out: EC90 Concentration Alone) was 26.1 nM. For the same molecule, the decay half-life ([3]; multiple administration) was 26.0 ± 7.9 h and the decay half-life ([3]; single administration) was 20.0 ± 8.6 h.

For “NHR-peptide, disulfide-stabilized helical trimer; SEQ ID NO:48 SGIVQQQNNLLRAIEAQQHLLQLTVWGIKQCCGR (not fully specified (bridges); also: disulfide-stabilized helical trimer) [N34ccg]”, the EC50 ([1]; read-out: EC50, HIV-induced cell-cell fusion) is listed as 95 nM.

In the case of “short all D-amino acid peptide; SEQ ID NO:24 KGACELLGWEWAWLCAA [D10-p5-2K]”, the “EC50, HIV infection / replication (in words)” value (HIV-1) is listed as “low micromolar range”.

In the case of “short all D-amino acid peptide; SEQ ID NO:25 KGACDYPEWQWLCAA [PIE7]”, the “EC50, HIV infection / replication (in words)” value (HIV-1) is given as “low micromolar range”.
